# Source: patent US11767298B2, “Substituted benzimidazoles as inhibitors of transforming growth factor-β kinase” (Duke University, priority 2016, dated 2023)
# Legend:
# GFP-PfPK9 = GFP-PfPK9 (Plasmodium falciparum, UniProt Q8IEG4); test: ATP-competitive binding assay (ATP-sepharose pull-down, FLECS); conditions: GFP-PfPK9; Kd calculated from EC50 of ATP pull-down dose-response; read-out: Kd, app
# Protocol: Primary small-molecule screen. A small-molecule screen was performed similar to a previously reported fluorescence linked enzyme chemoproteomic strategy (FLECS). Briefly, HEK293-GFP-PfPK9 cells were grown in 182-cm^2 tissue culture flasks (Genesee Scientific) and harvested at ˜80% cell confluency. Before assays the culture medium was aspirated, cells were rinsed with ice cold PBS and then they were removed with a cell scraper. Cells were pelleted by centrifugation (2,000 rpm, 4° C., 2 min) and immediately lysed for assays. The pellet was suspended in buffer A (25 mM HEPES, pH 7.4, 150 mM NaCl, 60 mM MgCl2, 1 mM DTT) with 1 μM microcystin, 0.1% Triton X-100 plus a Roche Complete protease inhibitor tablet and then placed on ice for 30 min to facilitate lysis. The supernatant was collected after centrifugation (4,300 rpm, 4° C., 5 min) and used in subsequent screening and titrations experiments. For screening, the supernatant was added to ATP-sepharose beads (1:1) and incubated with agitation at 4° C. for at least 1 hr to allow binding. Following this incubation, the mixture was centrifuged, the ATP resin was washed with 9 column volumes of buffer A with 1 M NaCl and then 9 column volumes of buffer A. The ATP-sepharose medium was reconstituted as a 1:1 slurry with buffer A and then added to 96-well filter plates (50 μL/well) (Corning #3505) using a multichannel pipette (Rainin). The filter plate was on top of black 96-well catch plates (Corning #3915). An ATP dilution series (1-200 mM) was added to each plate as a positive control and DMSO was the negative control. Compounds and controls were all added to 50 μL per well in buffer A. For screening, compounds were tested in singlicate at 500 μM. The final DMSO concentration in every well was 5%. The fluorescence intensity in each well was measured on an EnVision system. Data analyses of screens were carried out in EXCEL (Microsoft, Corp.) and actives were identified as 2×background signal.
# All screening positives that were verified with Western blot analysis were purchased from Enamine or Vitas-M laboratory. The purity of compounds 1-5 (shown below) was verified by high-resolution MS (Agilent). Compounds were tested in 8-point dose-response (0-500 μM) experiments in duplicate, essential as described above. The fluorescence intensity in each well was measured using an EnVision system. Dose-response analysis was performed with GraphPad Prism to acquire EC50 values. Determined EC50 values were used to calculate the observed PfPK9 Kd and reported values are the average of 2-3 independent experiments.
# Stable cell line generation. The P. falciparum PK9 gene (PlasmoDB accession #PF3D7_1315100) was cloned into the pEGFP-C1 mammalian expression vector (Clontech) in frame with a […] GFP tag. For screening, HEK293 cells were transfected with the resulting PfPK9-pEGFP-C1 vector to generate HEK293-GFP-PfPK9 expressing cells using X-tremeGENE HP transfection reagent (Roche) per the manufacturer instructions. Briefly, the culture medium was replaced at 48 hours post-transfection with medium supplemented with 1 mg/mL G418 sulfate (Life Technologies) to select for stably transfected cells. Following stable cell selection, fluorescence activated cell sorting (FACS) was used to enrich for GFP-PfPK9 expressing cells. Subsequently, FACS sorted HEK293-GFP-PfPK9 cells were cultured with medium supplemented with 0.5 mg/mL G418 sulfate for all following experiments. Protein expression was verified by Western blot analysis probing for anti-GFP and by fluorescence intensity using an EnVision (PerkinElmer) system.
# All 14 positive molecules were also tested for their binding affinity to PfPK9 using an optimized ATP-competitive binding assay. EC50 values ranging from low μM to low mM were observed and these EC50 values were used to derive dissociation constants as described previously. […]
# P. berghei EEFs = test: Immunofluorescence analysis of P. berghei EEFs in Huh7 cells; type: cell-based
# Protocol: Immunofluorescence analysis of EEFs. For immunofluorescence analysis of EEFs, Huh7 cells were fixed with 4% paraformaldehyde for 10 min at room temperature (RT), washed thrice with PBS, permeabilized with cooled methanol for 10 min at −20° C. and blocked with 3% BSA in PBS for 30 min at RT. Thereafter, cells were incubated with a primary antibody, mouse anti-PbHSP70 (clone 2E6 1:1000) diluted in blocking buffer overnight at 4° C. Following incubation, samples were washed with PBS and incubated for 1 hr at RT with a secondary antibody, goat anti-mouse AlexaFluor 488 (1:400, Life Technologies). Finally, nuclei were stained with DAPI for 15 min at RT. For evaluation of fluorescence intensity from EEFs after infection with GFP-expressing P. berghei sporozoites, DAPI nucleus staining was performed following cell fixation. After five washes with PBS, ˜40 μl PBS was left in wells and images were acquired on a Zeiss Axio Observer widefield fluorescence microscope.
# To further investigate the effect of compound 1 during malaria's liver stage, immunofluorescence assays were performed. Infected Huh7 cells were treated with 10 μM or 30 μM compound 1 for various period of time ranging from 0-24 h post-infection (hpi), 24-48 hpi and 0-48 hpi, and subsequently labeled with P. berghei HSP70 antibodies at 48 hpi. […] EEF size as compared to DMSO treated cells at all time periods tested (One-way ANOVA P<0.0001). The number of P.b. EEFs was not affected by 10 μM compound 1 as compared to DMSO treatment (FIG. 4B; One-way ANOVA P=0.0804). Similarly, treatment of infected cells with 30 μM compound 1 led to increased P.b. EEF size when added either for 0-24 hpi or 24-48 hpi. (FIGS. 4C and 4E; One-way ANOVA P<0.0001). […] Moreover, total fluorescence signal from GFP-expressing P.b. EEFs decreased with compound 1 when added for a period of 48 h post-infection. […] EEF size was increased by 10 μM compound 1 as compared to DMSO treated cells.
# GFP-PfPK9, sequence (Q8IEG4 entry or part of it): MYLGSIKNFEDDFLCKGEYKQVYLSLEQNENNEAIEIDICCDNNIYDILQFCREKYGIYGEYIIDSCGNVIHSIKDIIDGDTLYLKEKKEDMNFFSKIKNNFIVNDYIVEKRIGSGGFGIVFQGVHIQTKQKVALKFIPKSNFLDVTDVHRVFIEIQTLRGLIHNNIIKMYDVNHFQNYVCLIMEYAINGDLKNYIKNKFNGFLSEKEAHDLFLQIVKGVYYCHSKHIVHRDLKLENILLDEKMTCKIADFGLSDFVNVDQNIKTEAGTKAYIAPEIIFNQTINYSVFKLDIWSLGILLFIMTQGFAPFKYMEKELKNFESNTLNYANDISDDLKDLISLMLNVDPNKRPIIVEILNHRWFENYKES
smiles,measurement,setting,value
"CCCn1c(NC(=O)c2cccc(C(N)=O)c2)nc2ccccc21 [HS-206 (1), (E)-N-(1-Propyl-1,3-dihydro-2H-benzo[d]imidazol-2-ylidene)isophthalamide]",Kd,GFP-PfPK9,200 nM
same,P.b. EEF size,"P. berghei EEFs; 10 μM, 0-24, 24-48 and 0-48 hpi, Huh7",significantly increased
same,number of P.b. EEFs,"P. berghei EEFs; 10 μM, Huh7",not affected
same,number of P.b. EEFs,"P. berghei EEFs; 30 μM, added 0-24 hpi or 0-48 hpi",decreased
same,P.b. EEF size,"P. berghei EEFs; 30 μM, added 0-24 hpi or 24-48 hpi, Huh7",increased
same,number of P.b. EEFs,"P. berghei EEFs; 30 μM, treatment from 24-48 hpi",did not significantly decreased
same,total fluorescence signal from GFP-expressing P.b. EEFs,"P. berghei EEFs; 10 and 30 μM, 48 h post-infection",decreased
